Laboratory results reported in patent US20240299558A1, “PROTEOLYSIS TARGETING CHIMERAS AND POLYPHARMACOLOGICAL AGENTS TARGETING BCL-2, AND METHODS OF USE THEREOF” (University of Maryland, Baltimore, priority 2021, published 2024).
pIC50: −log10 of the molar value.

What was measured:
BCL-2^1-211 = BCL-2^1-211 (Homo sapiens, UniProt P10415); experiment: Fluorescence polarization competition assay (FPCA), FITC-Bak competed off BCL-2; format: binding
Procedure: Fluorescence polarization assays were performed in 96 well polypropylene F-bottom black microplates (Greiner Bio-One) with a final volume of 100 μL. […] The changes in the fluorescence polarization were then measured using a BMG PHERAstar FS multimode microplate reader equipped with two PMTs for simultaneous measurements of both the perpendicular and parallel fluorescence emission at a 485 nm excitation and 520 nm emission filter.
The fluorescence polarization competition assays were setup using a Biomek FXP Automated Liquid Handling System. […] The IC50 values were then converted to Ki values using an equation derived by Nikolovska-Coleska et al. All inhibitors were tested in triplicate.

MOLM14 AML cells = experiment: Luc-labelled MOLM14 AML xenograft pilot experiment in NRG mice; settings: two 5d PO treatment cycles (d1-5, d21-25), imaging d7, d14, d21, 5 mice/group
Procedure: Statistical analyses are conducted using GraphPad software. AML burden is quantified using log transformed ratio of luminescence at d7/14/21 vs do for each mouse (fold-change); groups are compared using the appropriate parametric (ANOVA; t-test, etc) or non-parametric alternative as necessary (Wilcoxon rank sum, Kruskal-Wallis). For time-to-event endpoints, Kaplan-Meier survival of groups are compared using the log-rank test. p<0.05 is considered statistically different.
On d0, after Xenogen quantification of baseline total body luminescence (AML burden), groups of 5 AML-bearing mice were treated on days 1-5, per previously established MTD PO×5d schedule, with VEN (150 mg/kg/d PO×5), as monotherapy or co-administered with SOR (30 mg/kg/d PO×5), ART (50 mg/kg/d PO×5), and/or ASP (200 IU/kg IP single dose). A second identical drug cycle was administered on d21-25. On d7, d14 and d21, each mouse was Xenogen imaged for total body luminescence, fold-change AML burden from do was calculated for each mouse, and mean (+/−SD) fold-change for each experimental group plotted.

Chain of BCL-2^1-211 (P10415 1-211): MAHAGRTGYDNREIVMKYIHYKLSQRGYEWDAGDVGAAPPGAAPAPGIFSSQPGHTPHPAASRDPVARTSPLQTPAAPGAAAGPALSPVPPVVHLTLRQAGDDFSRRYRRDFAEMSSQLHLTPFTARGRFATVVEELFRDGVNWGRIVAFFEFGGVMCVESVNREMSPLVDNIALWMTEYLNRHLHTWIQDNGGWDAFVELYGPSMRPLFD

Compound | pIC50 (BCL-2^1-211) | AML burden over time (fold-change total body luminescence) vs vehicle (MOLM14 AML cells) | AML burden over time (fold-change total body luminescence) vs vehicle (MOLM14 AML cells; listed as SOR)
CC(C)Cc1ccc([C@@H](C)C(=O)NCCOCCOCCNc2ccc(S(=O)(=O)NC(=O)c3ccc(N4CCN(CC5=C(c6ccc(Cl)cc6)CC(C)(C)CC5)CC4)cc3Oc3cnc4[nH]ccc4c3)cc2[N+](=O)[O-])cc1 [CG-3-005] | > 7.70 |  | 
CNC(=O)c1cc(Oc2ccc(NC(=O)Nc3ccc(Cl)c(C(F)(F)F)c3)cc2)ccn1 [Sorafenib] |  | reduced AML burden only moderately | significant difference in AML burden only at d7 and d14
PEGylated L-asparaginase |  | minimal activity | 
CC1(C)CCC(CN2CCN(c3ccc(C(=O)NS(=O)(=O)c4ccc(NCCOCCOCCNC(=O)C(c5ccccc5)c5ccccc5)c([N+](=O)[O-])c4)c(Oc4cnc5[nH]ccc5c4)c3)CC2)=C(c2ccc(Cl)cc2)C1 [CG-2-132] | > 7.70 |  | 
CC1(C)CCC(CN2CCN(c3ccc(C(=O)NS(=O)(=O)c4ccc(NCCNC(=O)CC56CC7CC(CC(C7)C5)C6)c([N+](=O)[O-])c4)c(Oc4cnc5[nH]ccc5c4)c3)CC2)=C(c2ccc(Cl)cc2)C1 [SF-7-330] | > 7.70 |  | 
